This passage reports EC50 results from patent publication US20100331297A1, “MODULATION OF PROTEIN TRAFFICKING” (FOLDRX PHARMACEUTICALS, INC., priority 2007, published 2010).

The structures appear in SMILES notation.

In this assay the target is ΔF508 CFTR (Homo sapiens, UniProt P13569, DEL508-508). The assay can be described thus: Corrector activity, YFP halide (iodide) quenching assay in FRT cells expressing ΔF508 CFTR. The class given is cell-based. The settings on record: FRT cells ΔF508 CFTR/YFP, 24 hours with compound at 37° C., forskolin and genistein; read-out: Corrector EC50. The arrangement: expressed in transfected cells; host or cells: Fischer rat thyroid (FRT) cells. The protocol: Fisher rat thyroid (FRT) cells stably expressing ΔF508 CFTR and a halide-sensitive variant of yellow fluorescent protein (YFP) were seeded into microtiter plates and allowed to grow for 24 hours at 37° C. and 5% CO2. See Pedemonte et al., J. Clin. Invest. […] Compounds in dimethylsulfoxide (DMSO) solution were pre-diluted into cell culture medium, the medium was removed from cells, and then fresh medium containing the compounds was applied. The cells were incubated for a further 24 hours at 37° C. and 5% CO2.
Chain of ΔF508 CFTR (P13569 with tags, fused parts or gaps DEL508-508): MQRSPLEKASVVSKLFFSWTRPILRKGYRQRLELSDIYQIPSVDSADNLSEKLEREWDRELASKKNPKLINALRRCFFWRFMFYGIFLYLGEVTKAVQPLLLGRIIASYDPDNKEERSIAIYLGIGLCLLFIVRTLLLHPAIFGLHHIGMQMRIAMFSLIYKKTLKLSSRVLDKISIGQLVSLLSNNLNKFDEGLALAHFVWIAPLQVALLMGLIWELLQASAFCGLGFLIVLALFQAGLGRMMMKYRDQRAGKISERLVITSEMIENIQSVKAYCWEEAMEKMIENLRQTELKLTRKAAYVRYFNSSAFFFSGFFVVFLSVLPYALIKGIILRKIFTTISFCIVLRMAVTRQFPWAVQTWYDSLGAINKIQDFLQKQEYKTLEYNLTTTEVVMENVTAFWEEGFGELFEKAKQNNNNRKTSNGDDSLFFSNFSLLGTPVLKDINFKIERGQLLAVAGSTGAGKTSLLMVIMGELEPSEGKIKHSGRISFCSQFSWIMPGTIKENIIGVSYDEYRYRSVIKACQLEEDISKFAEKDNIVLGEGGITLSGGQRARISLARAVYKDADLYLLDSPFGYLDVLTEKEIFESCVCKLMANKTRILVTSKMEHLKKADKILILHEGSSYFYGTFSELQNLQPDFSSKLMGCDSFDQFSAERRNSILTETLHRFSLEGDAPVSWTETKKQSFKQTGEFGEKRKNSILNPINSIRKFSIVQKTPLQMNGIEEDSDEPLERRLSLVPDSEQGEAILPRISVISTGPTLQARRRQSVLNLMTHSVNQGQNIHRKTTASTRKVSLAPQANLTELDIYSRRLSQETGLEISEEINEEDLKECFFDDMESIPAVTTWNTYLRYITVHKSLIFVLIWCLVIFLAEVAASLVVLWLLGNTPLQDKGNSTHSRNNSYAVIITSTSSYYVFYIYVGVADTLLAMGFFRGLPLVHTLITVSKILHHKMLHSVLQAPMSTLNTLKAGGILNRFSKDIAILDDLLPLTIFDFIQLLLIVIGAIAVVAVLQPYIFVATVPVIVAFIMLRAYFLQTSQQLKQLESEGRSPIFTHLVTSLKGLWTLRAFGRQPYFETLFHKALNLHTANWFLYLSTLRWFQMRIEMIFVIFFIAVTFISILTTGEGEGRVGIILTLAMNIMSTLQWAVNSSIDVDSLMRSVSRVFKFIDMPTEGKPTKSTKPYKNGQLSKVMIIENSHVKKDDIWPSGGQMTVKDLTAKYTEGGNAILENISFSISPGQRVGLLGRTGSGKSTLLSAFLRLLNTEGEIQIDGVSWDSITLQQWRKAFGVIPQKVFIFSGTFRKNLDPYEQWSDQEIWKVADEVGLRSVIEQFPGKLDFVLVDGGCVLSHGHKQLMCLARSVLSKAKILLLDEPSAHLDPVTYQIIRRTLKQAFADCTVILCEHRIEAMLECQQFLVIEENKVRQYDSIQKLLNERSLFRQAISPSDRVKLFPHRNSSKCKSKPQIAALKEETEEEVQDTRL
Activity of CFTR was assayed by removing the medium, washing the cell monolayer with phosphate-buffered saline solution (PBS), and then applying PBS containing forskolin and genistein. After 30 min incubation at 37° C., the plates were placed in a fluorescence plate reader equipped with a reagent injector.
Corrector activity was calculated as follows. Normalized endpoint fluorescence was calculated by dividing the endpoint fluorescence after iodide injection by the initial fluorescence reading and multiplication by 100. Corrector EC50 values were calculated from the activity vs. concentration data using a 4-parameter log fit. The bottom of the curve was constrained to zero activity (DMSO control) while the slope, EC50, and top of the curve were fitted to the data. The EC50 was determined as the concentration that corresponds to the inflection point of the fitted curve.
As usually defined, the EC50 is the concentration needed to bring the measured effect to its halfway point. For `CCn1nc(Sc2ccncc2)c2c(N)ncnc21` [compound 249], the 50% effective concentration (EC50) was above 15 µM.

For `CN(C)/C=N/c1ncnc2c1c(-c1ccc(Cl)cc1)nn2C(C)(C)C` [Compound No. 232, N′-[1-tert-Butyl-3-(4-chloro-phenyl)-1H-pyrazolo[3,4-d]pyrimidin-4-yl]-N,N-dimethyl-formamidine], the 50% effective concentration (EC50) was above 15 µM.

`CC(C)(C)C(=O)Nc1ncnc2c1cnn2C(C)(C)C` [compound 389]: the EC50 was above 15 µM.

`Nc1ncnc2c1c([S+]([O-])c1cccc(Cl)c1)nn2C1CNC1` (stereo not drawn) [compound 418]: the EC50 was above 15 µM.

On to `COC(=O)n1nc(-c2ccc(Cl)cc2)c2c(N)ncnc21` [compound 186, 4-Amino-3-(4-chloro-phenyl)-pyrazolo[3,4-d]pyrimidine-1-carboxylic acid methyl ester], for which the concentration giving a half-maximal response (EC50) is above 15 µM.

On to `Nc1ncnc2c1c(Oc1cccc(Cl)c1)nn2C1CCCC1` [Compound No. 221, 3-(3-Chloro-phenoxy)-1-cyclopentyl-1H-pyrazolo[3,4-d]pyrimidin-4-ylamine], for which the EC50 was above 15 µM.

`CC(=O)N(C)c1ncnc2c1c(-c1ccc(Cl)cc1)nn2C(C)(C)C` [Compound No. 259, N-[1-tert-Butyl-3-(4-chloro-phenyl)-1H-pyrazolo[3,4-d]pyrimidin-4-yl]-N-methyl-acetamide]: the half-maximal effective concentration (EC50) was above 15 µM.

For the compound `CC(C)C(=O)Nc1ncnc2c1c(-c1ccc(Cl)cc1)cn2C(C)(C)C` [compound 366], the concentration giving a half-maximal response (EC50) is above 15 µM.

Turning to `CCn1cc(-c2ccc(Cl)cc2)c2c(N(C(C)=O)C(C)=O)ncnc21` [compound 211, N-Acetyl-N-[5-(4-chloro-phenyl)-7-ethyl-7H-pyrrolo[2,3-d]pyrimidin-4-yl]-acetamide], the EC50 was 2 to 5 µM.

Consider `CC(=O)n1nc(-c2ccc(Cl)cc2)c2c(N)ncnc21` [compound 181, 1-[4-Amino-3-(4-chloro-phenyl)-pyrazolo[3,4-d]pyrimidin-1-yl]-ethanone], for which the 50% effective concentration (EC50) was above 15 µM.

As for `CCNC(=O)n1nc(-c2ccc(Cl)cc2)c2c(N)ncnc21` [Compound No. 213, 4-Amino-3-(4-chloro-phenyl)-pyrazolo[3,4-d]pyrimidine-1-carboxylic acid ethylamide], the EC50 was in the range of 5 to 10 µM.

On to `CC(C)N1CC(n2nc(Sc3cccc(Cl)c3)c3c(N)ncnc32)C1` [compound 360], for which the concentration giving a half-maximal response (EC50) is above 15 µM.

For the compound `CC(C)(C)n1cc(-c2cccc(Cl)c2)c2c(N)ncnc21` [compound 354], the 50% effective concentration (EC50) is above 15 µM.

On to `Nc1ncnc2c1c(Nc1ccccc1)nn2C1CCC1` [Compound No. 253, 1-Cyclobutyl-N^3-phenyl-1H-pyrazolo[3,4-d]pyrimidine-3,4-diamine], for which the EC50 is above 15 µM.

As for `CCn1nc([S+]([O-])c2cccc(C(F)(F)F)c2)c2c(N)ncnc21` (stereo not drawn) [compound 340], the EC50 is above 15 µM.

As for `CC(C)(C)n1nc(-c2ccc(Cl)cc2)c2c(NC(=O)Nc3ccccc3)ncnc21` [Compound No. 230, 1-[1-tert-Butyl-3-(4-chloro-phenyl)-1H-pyrazolo[3,4-d]pyrimidin-4-yl]-3-phenyl-urea], the 50% effective concentration (EC50) is above 15 µM.

For the compound `CC(C)(C)n1nc(Oc2cccc(Cl)c2)c2c(NC(=O)N3CCCC3)ncnc21` [compound 400], the EC50 was above 15 µM.

Consider `COCCn1nc(-c2ccc(Cl)cc2)c2c(N)ncnc21` [compound 171], for which the EC50 was above 15 µM.

On to `CCn1c(C)c(-c2ccc(Cl)cc2)c2c(NC(=O)C3CCCC3)ncnc21` [compound 365], for which the concentration giving a half-maximal response (EC50) is 2 to 5 µM.

Take `CN1CC(n2nc(Cc3cccc4ccccc34)c3c(N)ncnc32)C1` [compound 387]: the concentration for a half-maximal effect (EC50) was above 15 µM.

With `CC(C)N1CC(n2nc(Oc3cccc(Cl)c3)c3c(N)ncnc32)C1` [compound 402], the half-maximal effective concentration (EC50) was above 15 µM.

As for `Nc1ncnc2c1c(Oc1ccccc1)nn2C1CCOC1` (stereo not drawn) [compound 359], the 50% effective concentration (EC50) was above 15 µM.

As to `CC(C)(C)n1nc(Oc2cccc(Cl)c2)c2c(NC(=O)C3CCCC3)ncnc21` [compound 338], the EC50 was in the range of 5 to 10 µM.

With `CCNC(=O)Nc1ncnc2c1c(Cc1cccc(Cl)c1)nn2C1CN(C(=O)NCC)C1` [compound 424], the half-maximal effective concentration (EC50) is above 15 µM.

Turning to `Nc1ncnc2c1c(-c1ccc(Cl)cc1)nn2-c1ncccn1` [compound 251], the EC50 was above 15 µM.

For the compound `CC(C)(C)n1nc(-c2ccc(Cl)cc2)c2c(NC(=O)C3CCOC3)ncnc21` (stereo not drawn) [compound 393], the EC50 was 5 to 10 µM.

In the case of `CN1CCC(n2nc(-c3ccc(Cl)cc3)c3c(N)ncnc32)CC1` [compound 378], the concentration giving a half-maximal response (EC50) was above 15 µM.

For the compound `CCn1nc(Nc2ccccc2)c2c(N)ncnc21` [Compound No. 223, 1-Ethyl-N^3-phenyl-1H-pyrazolo[3,4-d]pyrimidine-3,4-diamine], the half-maximal effective concentration (EC50) was above 15 µM.

In the case of `CC(C)(C)n1cc(-c2cccc(Cl)c2)c2c(NC(=O)C3CCCC3)ncnc21` [compound 367], the concentration giving a half-maximal response (EC50) is 5 to 10 µM.

For `CC(C)(C)n1cc(-c2ccc(Cl)cc2)c2c(NC(=O)C3CCC3)ncnc21` [compound 391], the EC50 lay in the range of 2 to 5 µM.

For `CS(=O)(=O)n1nc(-c2ccc(Cl)cc2)c2c(N)ncnc21` [compound 203, 3-(4-Chloro-phenyl)-1-methanesulfonyl-1H-pyrazolo[3,4-d]pyrimidin-4-ylamine], the EC50 was above 15 µM.

As to `Nc1ncnc2c1c(Sc1ccccc1)nn2C1CNC1` [compound 416], the half-maximal effective concentration (EC50) was above 15 µM.

Consider `CC(C)C(=O)N(C(=O)C(C)C)c1ncnc2c1c(Br)nn2C(C)(C)C` [compound 426], for which the EC50 was 5 to 10 µM.

Take `CC(C)(C)n1nc(-c2ccc(Cl)cc2)c2c(NC(=O)C(=O)c3ccccc3)ncnc21` [Compound No. 395, N-[1-tert-Butyl-3-(4-chloro-phenyl)-1H-pyrazolo[3,4-d]pyrimidin-4-yl]-2-oxo-2-phenyl-acetamide]: the EC50 was 5 to 10 µM.

Take `CCOC(=O)N1CC(n2nc([S+]([O-])c3ccccc3)c3c(N)ncnc32)C1` (stereo not drawn) [compound 405]: the EC50 was above 15 µM.

With `CCn1nc([S+]([O-])c2cccc(Br)c2)c2c(N)ncnc21` (stereo not drawn) [compound 392], the half-maximal effective concentration (EC50) is above 15 µM.

For the compound `CC(C)(C)n1cc(-c2ccc(Cl)cc2)c2c(NC(=O)C3CCCO3)ncnc21` (stereo not drawn) [compound 376], the EC50 is 2 to 5 µM.

With `CC(C)(C)n1nc(-c2ccc(Cl)cc2)c2c(NC(=O)NCc3ccccc3)ncnc21` [compound 231], the EC50 was above 15 µM.

As to `CC(C)(C)n1ncc2c(NC(=O)c3ccccc3)ncnc21` [Compound No. 388, N-(1-tert-Butyl-1H-pyrazolo[3,4-d]pyrimidin-4-yl)-benzamide], the half-maximal effective concentration (EC50) is above 15 µM.

For the compound `CCNC(=O)N1CC(n2nc(Oc3cccc(Cl)c3)c3c(N)ncnc32)C1` [compound 381], the EC50 was above 15 µM.

`CCn1nc(Sc2ccc(F)cc2F)c2c(N)ncnc21` [compound 258]: the half-maximal effective concentration (EC50) was above 15 µM.

In the case of `CCn1nc([S+]([O-])c2ccccc2C)c2c(N)ncnc21` (stereo not drawn) [compound 222], the EC50 was above 15 µM.

Take `CCNC(=O)Nc1ncnc2c1c(-c1ccc(Cl)cc1)nn2C(C)(C)C` [compound 239]: the concentration giving a half-maximal response (EC50) was above 15 µM.

As for `CN1CC(n2nc(Sc3cccc(Cl)c3)c3c(N)ncnc32)C1` [compound 382], the EC50 was above 15 µM.

For the compound `CCC(=O)Nc1ncnc2c1c(-c1ccc(Cl)cc1)cn2C(C)(C)C` [compound 371], the EC50 was below 2 µM.

On to `CCn1nc([S+]([O-])c2ccc(F)cc2)c2c(N)ncnc21` (stereo not drawn) [compound 254], for which the half-maximal effective concentration (EC50) is above 15 µM.

Turning to `Nc1ncnc2c1c(-c1ccc(Cl)cc1)nn2C(=O)C1CC1` [compound 182], the EC50 fell in the range of 5 to 10 µM.

As for `CC(C)(C)n1nc(-c2ccc3ccccc3c2)c2c(N)ncnc21` [compound 129], the 50% effective concentration (EC50) fell in the range of 5 to 10 µM.

With `CC(C)C(=O)Nc1ncnc2c1cnn2C(C)(C)C` [compound 390], the 50% effective concentration (EC50) is above 15 µM.

Consider `CC(C)(C)n1nc(-c2ccc(O)c3ccccc23)c2c(N)ncnc21` [compound 164], for which the EC50 was above 15 µM.

On to `CC(C)C(=O)Nc1ncnc2c1c(Br)nn2C(C)(C)C` [compound 423], for which the half-maximal effective concentration (EC50) was below 2 µM.

With `CC(C)(C)OC(=O)N1CC(n2nc([S+]([O-])c3ccccc3)c3c(N)ncnc32)C1` (stereo not drawn) [compound 385], the EC50 is above 15 µM.

In the case of `CC(C)(C)OC(=O)N1CC(n2nc(Oc3cccc(Cl)c3)c3c(N)ncnc32)C1` [compound 357], the EC50 is above 15 µM.

For `CCC(C)Cn1nc(-c2ccc(Cl)cc2)c2c(N)ncnc21` (stereo not drawn) [compound 101], the EC50 is above 15 µM.

Consider `CCn1nc(Oc2cccc(Cl)c2)c2c(N)ncnc21` [compound 260], for which the EC50 was above 15 µM.

In the case of `CC(=O)c1ccc(-c2nn(C(C)(C)C)c3ncnc(N)c23)cc1` [compound 125], the half-maximal effective concentration (EC50) was above 15 µM.

`CC(C)(C)n1nc(-c2nc3ccccc3o2)c2c(N)ncnc21` [Compound No. 355, 3-Benzooxazol-2-yl-1-tert-butyl-1H-pyrazolo[3,4-d]pyrimidin-4-ylamine]: the 50% effective concentration (EC50) was 2 to 5 µM.

For `CC(C)(C)C(=O)Nc1ncnc2c1c(Br)nn2C(C)(C)C` [compound 422], the EC50 is 2 to 5 µM.

On to `Nc1ncnc2c1c(-c1ccc(Cl)cc1)nn2C(=O)NCc1ccccc1` [compound 215], for which the concentration for a half-maximal effect (EC50) was above 15 µM.

`CC(=O)N1CC(n2nc(Oc3cccc(Cl)c3)c3c(N)ncnc32)C1` [compound 380]: the EC50 was above 15 µM.
